In patent US20250064941A1, “SIGLEC LIGANDS, CONJUGATES, AND METHODS OF USE THEREOF” (Osprey Biopharmaceuticals, Inc., priority 2023, published 2025):

Tests used:
cynomolgus Siglec-2/CD22 = cynomolgus Siglec-2/CD22 (Macaca fascicularis, UniProt A0A2K5WCZ6); assay: biochemical; type: binding; conditions: SPR, steady-state analysis; read-out: Affinity cyno CD22
Method in brief: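 SPR with desialylated (SialoExo, 4 h, 37° C.) cynomolgus CD22 amine-coupled to a CM5 chip. Running buffer 10 mM HEPES, 150 mM NaCl, 0.05% Tween-20, pH 7.5, 1% DMSO, with solvent correction; 120 s dissociation. Affinities from steady-state analysis.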

[1] = molecular target: T1, human Siglec-2/CD22 protein (Homo sapiens, UniProt P20273); assay: SPR binding affinity to human CD22; conditions: steady-state analysis
T1 construct: purchased Acro Biosystems SI2-H82E3
T1 sequence (P20273 20-847): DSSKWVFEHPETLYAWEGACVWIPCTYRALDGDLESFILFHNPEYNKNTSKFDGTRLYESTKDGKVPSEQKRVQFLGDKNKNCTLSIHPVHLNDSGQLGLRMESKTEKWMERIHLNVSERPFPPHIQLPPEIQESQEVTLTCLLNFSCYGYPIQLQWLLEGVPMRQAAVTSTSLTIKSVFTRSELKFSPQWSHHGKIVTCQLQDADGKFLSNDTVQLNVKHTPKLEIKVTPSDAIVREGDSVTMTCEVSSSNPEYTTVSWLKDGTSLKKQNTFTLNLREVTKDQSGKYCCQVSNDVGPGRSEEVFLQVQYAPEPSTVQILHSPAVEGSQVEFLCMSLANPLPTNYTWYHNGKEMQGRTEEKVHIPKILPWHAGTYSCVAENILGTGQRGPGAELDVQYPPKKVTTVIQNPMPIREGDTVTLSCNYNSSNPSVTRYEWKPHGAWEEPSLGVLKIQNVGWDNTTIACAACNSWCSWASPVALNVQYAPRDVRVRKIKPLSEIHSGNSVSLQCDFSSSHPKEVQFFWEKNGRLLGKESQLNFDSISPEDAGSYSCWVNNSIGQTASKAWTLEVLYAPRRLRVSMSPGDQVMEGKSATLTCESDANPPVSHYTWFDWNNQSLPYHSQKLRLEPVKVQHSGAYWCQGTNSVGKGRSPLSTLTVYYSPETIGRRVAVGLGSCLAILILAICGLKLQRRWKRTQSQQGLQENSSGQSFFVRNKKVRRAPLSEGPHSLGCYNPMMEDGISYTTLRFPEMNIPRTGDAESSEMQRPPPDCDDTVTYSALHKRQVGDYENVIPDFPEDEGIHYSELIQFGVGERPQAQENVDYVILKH
Method in brief: (§1)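 Steady-state fits gave the affinities. Before capture on a streptavidin surface, biotinylated CD22 had native sialic acids stripped (SialoExo, 4 hours, 37° C.). Running buffer: 10 mM HEPES pH 7.5, 150 mM NaCl, 0.05% Tween-20, 1% DMSO, with DMSO solvent correction.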

[2] = molecular target: T2, mouse Siglec-2-Fc-Avi (CD22) (Mus musculus, UniProt P35329); assay: SPR binding affinity to mouse CD22; conditions: steady-state analysis
T2 construct: made in house
T2 sequence (P35329 22-708 limits assumed): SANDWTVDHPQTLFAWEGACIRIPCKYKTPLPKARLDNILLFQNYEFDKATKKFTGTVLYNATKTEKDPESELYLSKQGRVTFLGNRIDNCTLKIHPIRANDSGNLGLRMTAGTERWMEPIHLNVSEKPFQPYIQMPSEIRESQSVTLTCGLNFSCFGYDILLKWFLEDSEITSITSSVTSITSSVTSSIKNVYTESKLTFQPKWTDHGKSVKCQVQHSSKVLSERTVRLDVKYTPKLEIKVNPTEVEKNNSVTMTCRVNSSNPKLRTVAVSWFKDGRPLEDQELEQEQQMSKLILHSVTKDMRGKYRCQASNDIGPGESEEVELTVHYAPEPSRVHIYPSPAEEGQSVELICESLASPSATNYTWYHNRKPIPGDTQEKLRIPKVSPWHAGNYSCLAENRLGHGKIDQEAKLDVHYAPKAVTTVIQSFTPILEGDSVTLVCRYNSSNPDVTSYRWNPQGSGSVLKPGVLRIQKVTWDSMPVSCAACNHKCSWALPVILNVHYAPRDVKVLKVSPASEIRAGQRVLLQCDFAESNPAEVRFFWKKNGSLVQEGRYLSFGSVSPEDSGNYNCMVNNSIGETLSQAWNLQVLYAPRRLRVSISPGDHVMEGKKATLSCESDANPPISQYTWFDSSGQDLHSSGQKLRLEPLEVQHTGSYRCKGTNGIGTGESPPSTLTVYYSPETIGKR
Method in brief: as §1

Chain of cynomolgus Siglec-2/CD22 (A0A2K5WCZ6 entry or part of it): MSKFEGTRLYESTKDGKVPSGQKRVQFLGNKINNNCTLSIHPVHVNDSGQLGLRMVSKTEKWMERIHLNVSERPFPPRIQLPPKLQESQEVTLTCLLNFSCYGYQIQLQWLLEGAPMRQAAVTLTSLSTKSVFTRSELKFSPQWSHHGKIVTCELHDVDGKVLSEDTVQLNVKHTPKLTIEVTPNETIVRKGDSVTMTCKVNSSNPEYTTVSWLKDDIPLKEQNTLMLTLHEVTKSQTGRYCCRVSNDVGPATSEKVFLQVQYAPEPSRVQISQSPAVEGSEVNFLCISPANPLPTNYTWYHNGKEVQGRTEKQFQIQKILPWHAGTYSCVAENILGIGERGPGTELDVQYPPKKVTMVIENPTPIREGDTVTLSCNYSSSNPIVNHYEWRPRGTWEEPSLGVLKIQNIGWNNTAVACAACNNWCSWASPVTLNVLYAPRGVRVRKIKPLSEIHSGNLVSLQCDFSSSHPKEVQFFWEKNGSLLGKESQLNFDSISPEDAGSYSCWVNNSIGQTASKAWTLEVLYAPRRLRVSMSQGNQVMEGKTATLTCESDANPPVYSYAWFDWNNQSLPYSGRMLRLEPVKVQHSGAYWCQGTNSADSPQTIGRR

Compound	Kd (cynomolgus Siglec-2/CD22)	Kd [1]	Kd [2]
C#CCCOc1ccc(CO[C@]2(C(=O)O)C[C@H](O)[C@@H](NC(=O)CO)[C@H]([C@H](O)[C@H](O)CNC(=O)Cc3ccc(Cl)cc3)O2)cc1 [Compound 124, (2R,4S,5R,6R)-2-((4-(but-3-yn-1-yloxy)benzyl)oxy)-6-((1R,2R)-3-(2-(4-chlorophenyl)acetamido)-1,2-dihydroxypropyl)-4-hydroxy-5-(2-hydroxyacetamido)tetrahydro-2H-pyran-2-carboxylic acid]	1000 to 10000 nM	< 1000 nM	< 1000 nM
C#CCOCCOCCO[C@]1(C(=O)O)C[C@H](O)[C@@H](NC(=O)CO)[C@H]([C@H](O)[C@H](O)CNC(=O)Cc2cccc(Cl)c2)O1 [Compound 125, (2R,4S,5R,6R)-6-((1R,2R)-3-(2-(3-chlorophenyl)acetamido)-1,2-dihydroxypropyl)-4-hydroxy-5-(2-hydroxyacetamido)-2-(2-(2-(prop-2-yn-1-yloxy)ethoxy)ethoxy)tetrahydro-2H-pyran-2-carboxylic acid]	1000 to 10000 nM	< 1000 nM	1000 to 10000 nM
C#CCOCCOCCO[C@]1(C(=O)O)C[C@H](O)[C@@H](NC(=O)CO)[C@H]([C@H](O)[C@H](O)CNC(=O)Cc2ccc(Cl)cc2)O1 [Compound 126, (2R,4S,5R,6R)-6-((1R,2R)-3-(2-(4-chlorophenyl)acetamido)-1,2-dihydroxypropyl)-4-hydroxy-5-(2-hydroxyacetamido)-2-(2-(2-(prop-2-yn-1-yloxy)ethoxy)ethoxy)tetrahydro-2H-pyran-2-carboxylic acid]	1000 to 10000 nM	1000 to 10000 nM	1000 to 10000 nM
C#CCOCCCCCCO[C@]1(C(=O)O)C[C@H](O)[C@@H](NC(=O)CO)[C@H]([C@H](O)[C@H](O)CNC(=O)Cc2ccc(Cl)c(C(F)(F)F)c2)O1 [Compound 127, (2R,4S,5R,6R)-6-((1R,2R)-3-(2-(4-chloro-3-(trifluoromethyl)phenyl)acetamido)-1,2-dihydroxypropyl)-4-hydroxy-5-(2-hydroxyacetamido)-2-((6-(prop-2-yn-1-yloxy)hexyl)oxy)tetrahydro-2H-pyran-2-carboxylic acid]	< 1000 nM	< 1000 nM	1000 to 10000 nM
C#CCOCCCCCCO[C@]1(C(=O)O)C[C@H](O)[C@@H](NC(=O)CO)[C@H]([C@H](O)[C@H](O)CNC(=O)Cc2ccc(Cl)c(O)c2)O1 [Compound 128, (2R,4S,5R,6R)-6-((1R,2R)-3-(2-(4-chloro-3-hydroxyphenyl)acetamido)-1,2-dihydroxypropyl)-4-hydroxy-5-(2-hydroxyacetamido)-2-((6-(prop-2-yn-1-yloxy)hexyl)oxy)tetrahydro-2H-pyran-2-carboxylic acid]	< 1000 nM	< 1000 nM	< 1000 nM
C#CCOCCOCCO[C@]1(C(=O)O)C[C@H](O)[C@@H](NC(=O)CO)[C@H]([C@H](O)[C@H](O)CNC(=O)Cc2cc(O)cc(Cl)c2)O1 [Compound 129, (2R,4S,5R,6R)-6-((1R,2R)-3-(2-(3-chloro-5-hydroxyphenyl)acetamido)-1,2-dihydroxypropyl)-4-hydroxy-5-(2-hydroxyacetamido)-2-(2-(2-(prop-2-yn-1-yloxy)ethoxy)ethoxy)tetrahydro-2H-pyran-2-carboxylic acid]	< 1000 nM	< 1000 nM	1000 to 10000 nM
C#CCOCCCCCCO[C@]1(C(=O)O)C[C@H](O)[C@@H](NC(=O)CO)[C@H]([C@H](O)[C@H](O)CNC(=O)Cc2ccc(Cl)c(F)c2)O1 [Compound 130, (2R,4S,5R,6R)-6-((1R,2R)-3-(2-(4-chloro-3-fluorophenyl)acetamido)-1,2-dihydroxypropyl)-4-hydroxy-5-(2-hydroxyacetamido)-2-((6-(prop-2-yn-1-yloxy)hexyl)oxy)tetrahydro-2H-pyran-2-carboxylic acid]	< 1000 nM	< 1000 nM	1000 to 10000 nM
C#CCCOc1ccc(CS[C@]2(C(=O)O)C[C@H](O)[C@@H](NC(=O)CO)[C@H]([C@H](O)[C@H](O)CNC(=O)Cc3ccc(Cl)c(O)c3)O2)cc1 [Compound 131, (2S,4S,5R,6R)-2-((4-(but-3-yn-1-yloxy)benzyl)thio)-6-((1R,2R)-3-(2-(4-chloro-3-hydroxyphenyl)acetamido)-1,2-dihydroxypropyl)-4-hydroxy-5-(2-hydroxyacetamido)tetrahydro-2H-pyran-2-carboxylic acid]	< 1000 nM	< 1000 nM	< 1000 nM
C#CCOCCOCCO[C@]1(C(=O)O)C[C@H](O)[C@@H](NC(=O)CO)[C@H]([C@H](O)[C@H](O)CNC(=O)Cc2ccc(F)c(C(F)(F)F)c2)O1 [Compound 132, (2R,4S,5R,6R)-6-((1R,2R)-3-(2-(4-fluoro-3-(trifluoromethyl)phenyl)acetamido)-1,2-dihydroxypropyl)-4-hydroxy-5-(2-hydroxyacetamido)-2-(2-(2-(prop-2-yn-1-yloxy)ethoxy)ethoxy)tetrahydro-2H-pyran-2-carboxylic acid]	< 1000 nM	1000 to 10000 nM	> 10000 nM
C#CCOCCOCCO[C@]1(C(=O)O)C[C@H](O)[C@@H](NC(=O)CO)[C@H]([C@H](O)[C@H](O)CNC(=O)Cc2cc(F)cc(C(F)(F)F)c2)O1 [Compound 133, (2R,4S,5R,6R)-6-((1R,2R)-3-(2-(3-fluoro-5-(trifluoromethyl)phenyl)acetamido)-1,2-dihydroxypropyl)-4-hydroxy-5-(2-hydroxyacetamido)-2-(2-(2-(prop-2-yn-1-yloxy)ethoxy)ethoxy)tetrahydro-2H-pyran-2-carboxylic acid]	< 1000 nM	< 1000 nM	> 10000 nM
C#CCOCCOCCO[C@]1(C(=O)O)C[C@H](O)[C@@H](NC(=O)CO)[C@H]([C@H](O)[C@H](O)CNC(=O)Cc2ccc(Cl)c(O)c2)O1 [Compound 134, (2R,4S,5R,6R)-6-((1R,2R)-3-(2-(4-chloro-3-hydroxyphenyl)acetamido)-1,2-dihydroxypropyl)-4-hydroxy-5-(2-hydroxyacetamido)-2-(2-(2-(prop-2-yn-1-yloxy)ethoxy)ethoxy)tetrahydro-2H-pyran-2-carboxylic acid]	< 1000 nM	< 1000 nM	1000 to 10000 nM
C#CCCOc1ccc(CO[C@]2(C(=O)O)C[C@H](O)[C@@H](NC(=O)CO)[C@H]([C@H](O)[C@H](O)CNC(=O)Cc3ccc(Cl)c(O)c3)O2)cc1 [Compound 135, (2R,4S,5R,6R)-2-((4-(but-3-yn-1-yloxy)benzyl)oxy)-6-((1R,2R)-3-(2-(4-chloro-3-hydroxyphenyl)acetamido)-1,2-dihydroxypropyl)-4-hydroxy-5-(2-hydroxyacetamido)tetrahydro-2H-pyran-2-carboxylic acid]	< 1000 nM	< 1000 nM	< 1000 nM
C#CCCOc1ccc(CO[C@]2(C(=O)O)C[C@H](O)[C@@H](NC(=O)CO)[C@H]([C@H](O)[C@H](O)CNC(=O)Cc3ccc(O)c(Cl)c3)O2)cc1 [Compound 136, (2R,4S,5R,6R)-2-((4-(but-3-yn-1-yloxy)benzyl)oxy)-6-((1R,2R)-3-(2-(3-chloro-4-hydroxyphenyl)acetamido)-1,2-dihydroxypropyl)-4-hydroxy-5-(2-hydroxyacetamido)tetrahydro-2H-pyran-2-carboxylic acid]	< 1000 nM	< 1000 nM	1000 to 10000 nM
